Results: patent US11225465B2, “Albicidin derivatives, their use and synthesis” (TECHNISCHE UNIVERSITÄT BERLIN, priority 2017, dated 2022)

Key:
Assay in all cases: MHK against further strains (Table 2)
Format in all cases: cell-based
[1] = tested on: Staphylococcus aureus PEG 13-18-19; conditions: Nr. 26 Staphylococcus aureus PEG 13-18-19, clinical isolate
Experimental: (§1) The tests were performed using the micro dilution method.
(§2) The determination of MIC values was performed according to the ninth edition of the Approved Standard M07-A9 (CLSI. Methods for Dilution Antimicrobial Susceptibility Tests for Bacteria That Grow Aerobically; Approved Standard—Ninth Edition. CLSI document M07-A9. Wayne, Pa.: Clinical and Laboratory Standards Institute; 2012.)

[2] = tested on: Klebsiella oxytoca PEG-10-75-18; conditions: Nr. 15 Klebsiella oxytoca PEG-10-75-18, clinical isolate
Experimental: as §1, §2

[3] = tested on: Acinetobacter baumannii PEG 10-12-26; conditions: Nr. 22 Acinetobacter baumannii PEG 10-12-26, clinical isolate
Experimental: as §1, §2

[4] = tested on: Escherichia coli 100-2-56; conditions: Nr. 3 Escherichia coli 100-2-56, clinical isolate
Experimental: as §1, §2

[5] = tested on: Pseudomonas aeruginosa ATCC 27853; conditions: Nr. 6 Pseudomonas aeruginosa ATCC 27853; KBE/ml 5.60E+05
Experimental: as §1, §2

[6] = tested on: Escherichia coli PEG 10-2-81; conditions: Nr. 10 Escherichia coli PEG 10-2-81, clinical isolate
Experimental: as §1, §2

[7] = tested on: Acinetobacter baumannii PEG 10-57-24; conditions: Nr. 24 Acinetobacter baumannii PEG 10-57-24, clinical isolate
Experimental: as §1, §2

[8] = tested on: Acinetobacter baumannii PEG 10-86-5; conditions: Nr. 25 Acinetobacter baumannii PEG 10-86-5, clinical isolate; KBE/ml 2.00E+05
Experimental: as §1, §2

[9] = tested on: Klebsiella pneumoniae PEG-10-20-4; conditions: Nr. 4 Klebsiella pneumoniae PEG-10-20-4, clinical isolate
Experimental: as §1, §2

[10] = tested on: Pseudomonas aeruginosa PEG-10-44-76; conditions: Nr. 21 Pseudomonas aeruginosa PEG-10-44-76, clinical isolate
Experimental: as §1, §2

[11] = tested on: Klebsiella oxytoca PEG-10-45-54; conditions: Nr. 16 Klebsiella oxytoca PEG-10-45-54, clinical isolate; KBE/ml 4.40E+05
Experimental: as §1, §2

COc1c(NC(=O)c2ccc(NC(=O)c3ccc(NC(=O)[C@H](Cc4c[nH]cn4)NC(=O)c4ccc(NC(=O)/C(C)=C/c5ccc(O)cc5)cc4)cc3)c(OC)c2O)ccc(C(=O)O)c1O [Compound 1, L-His-albicidin]
MHK [1]: 8 mg/L
MHK [2]: 32 mg/L
MHK [3]: 16 mg/L
MHK [4]: 2 mg/L
MHK [5]: 2 mg/L
MHK [6]: 0.5 mg/L
MHK [7]: 2 mg/L
MHK [8]: 4 mg/L
MHK [9]: 32 mg/L
MHK [10]: 4 mg/L
MHK [11]: 4 mg/L

COc1c(NC(=O)c2ccc(NC(=O)c3ccc(NC(=O)[C@H](CN(C)C)NC(=O)c4ccc(NC(=O)/C(C)=C/c5ccc(O)cc5)cc4)cc3)c(OC)c2O)ccc(C(=O)O)c1O [Compound 2, L-DMDAP-Albicidin]
MHK [1]: 32 mg/L
MHK [2]: 32 mg/L
MHK [3]: 32 mg/L
MHK [4]: 32 mg/L
MHK [5]: 32 mg/L
MHK [6]: 32 mg/L
MHK [7]: 32 mg/L
MHK [8]: 32 mg/L
MHK [9]: 32 mg/L
MHK [10]: 32 mg/L
MHK [11]: 32 mg/L

COc1c(NC(=O)c2ccc(NC(=O)c3ccc(NC(=O)C(Cc4c[nH]nn4)NC(=O)c4ccc(NC(=O)/C(C)=C/c5ccc(O)cc5)cc4)cc3)c(OC)c2O)ccc(C(=O)O)c1O [Compound 3, L-Azahis-Albicidin]
MHK [1]: 0.5 mg/L
MHK [2]: 8 mg/L
MHK [3]: 16 mg/L
MHK [4]: 0.25 mg/L
MHK [5]: 1 mg/L
MHK [6]: 0.063 mg/L
MHK [7]: 1 mg/L
MHK [8]: 4 mg/L
MHK [9]: 32 mg/L
MHK [10]: 0.5 mg/L
MHK [11]: 0.5 mg/L

COc1c(NC(=O)c2ccc(NC(=O)c3ccc(NC(=O)[C@@H](CN(C)C)NC(=O)c4ccc(NC(=O)/C(C)=C/c5ccc(O)cc5)cc4)cc3)c(OC)c2O)ccc(C(=O)O)c1O [Compound 16, D-DMDAP-Albicidin]
MHK [1]: 32 mg/L
MHK [2]: 32 mg/L
MHK [3]: 32 mg/L
MHK [4]: 32 mg/L
MHK [5]: 32 mg/L
MHK [6]: 32 mg/L
MHK [7]: 32 mg/L
MHK [8]: 32 mg/L
MHK [9]: 32 mg/L
MHK [10]: 32 mg/L
MHK [11]: 32 mg/L
